Data set [1] is described as follows: Lactate-protected hypoglycemia (HG-HL) in anesthetized pig with extracorporeal HLa infusion. Format: in vivo. As to the method: Then, after hyperlactatemia was established, an insulin bolus and continuous infusion of insulin were titrated to achieve a [Glu] of between 1.3 and 1.7 mmol/L (25 to 30 mg/dL). Once the HG (1.5 mmol/L) HL(8 mmol/L) state was achieved, this was maintained for 4 h. Then normoglycemia was allowed to return.
This example entails achievement and sustaining [Glu] at ˜1.5 mmol/L for 4 hours in a pig under a [Lac] of 8 mmol/L.
The preparation started the day before the intervention at 17:00. No food was given to the pig after this time.
On the morning of the intervention the pig ate a small fatty snack combined with 500 mg of metformin. The inhibitory action of metformin on gluconeogenesis is expected to start within 3 h.
A bolus of 0.03 mg/kg medetomidine, a bolus of 4 mg/kg tiletamine-zolazepam and a bolus of 2 to 2.5 mg/kg 1% propofol were delivered intravenously. After intubation, volume-controlled ventilation was started. The respiratory rate was adjusted to target etCO2of 35 to 45 mmHg and a tidal volume of 8 to 10 ml/kg. The tidal volume was later adjusted when required on etCO2, pCO2 and pH. Then a 2-lumen dialysis catheter was surgically placed into the internal jugular vein. An unfractionated heparin bolus of 5000 IU (200 IU/kg) was administered and CVVH was initiated with unfractionated heparin (400 IU/ml) at 1 ml/h, titrated to an activated clotting time (ACT) of 250 to 300 seconds.
Counter-response inhibition was achieved by subsequent intravenous delivery of labetalol (5 mg/ml) at 3 ml/h titrated to a relative heart rate reduction of 10/m, and an intravenous bolus of 25 μg octreotide (10 μg/ml), then the octreotide continuous infusion was proportionally adjusted to keep [Glu] in the desired hypoglycemic range.
Depending on the subsequent [Glu], insulin infusion rates were varied between 0 to 60 U/h. If necessary, an additional bolus dose of insulin was given at least 30 minutes after the initial delivery using the same criteria as described before.
Once both a [Glu] of 1.3 to 1.7 and a [Lac] of 8 to 10 mmol/L was reached, this HG(1.5)HL(8) state was maintained for 4 hours using the clamping technique. Approximately halfway during the HG(1.5)HL(8)-phase the octreotide infusion was stopped as the T1/2 of octreotide is longer than T^1/2 of insulin and because sustained suppression of the hypoglycemic counter response by octreotide might prolong the duration of glucose 50% support during the normoglycemia restoration phase.
During the HG-HL phase, sliding scale adjustments of insulin and glucose 50% pumps were executed.
The glucose 50% infusion rate was adjusted and eventually tapered to zero until stable normoglycemia was achieved.

For data set [2] the following is noted: cited from earlier work.

The source of these data is US12514909B2, “Lactate-protected hypoglycemia to treat glycolysis dependent pathological conditions, in particular cancer” (priority 2018, dated 2026).

For `CC(O)C(=O)O` (centres unmarked) [HLa, lactic acid], the “arterial pH and sodium levels throughout the experiment” value in data set [1] (30 kg pig, 40% HLa via veno-venous extracorporeal circuit, [Lac] 8 mmol/L, [Glu] ~1.5 mmol/L for 4 h, with insulin, glucose 50%, octreotide, labetalol, metformin) is reported as “maintained within the desired range”. Besides, in data set [1] (30 kg pig, HG(1.5)HL(8) state for 4 h), the “hemodynamic instabilities, electrocardiographic or rhythm disturbances” value is on record as “no hemodynamic instabilities, electrocardiographic or rhythm disturbances were observed”. In data set [1] (30 kg pig, after 4 h HG(1.5)HL(8)), the “time after end of the HG-HL-phase until normoglycemia without exogenous glucose or lactate support” value came to 90 min. Besides, the “metabolic alkalosis or hypernatremia on administration of high doses” value in data set [1] (high doses of HLa instead of NaLa) is recorded as “did not lead to metabolic alkalosis or hypernatremia”.
Take `CC(O)C(=O)[O-].[Na+]` (centres unmarked) [sodium lactate]: the “side effects of intravenous administration of large amounts” value in data set [2] was “systemic metabolic alkalosis and hypernatremia”.
